Results taken from patent US8372830B2, “Methods for using vasopressin antagonists with anthracycline chemotherapy agents to reduce cardiotoxicity and/or improve survival” (Otsuka Pharmaceutical Co., Ltd., priority 2007, dated 2013).

What was measured:
[1] = test system: doxorubicin-induced cardiac toxicity and animal death; assay: Survival of rats given repeated intraperitoneal injections of doxorubicin (Example 1); assay type: in vivo, rat; conditions: tolvaptan 10 mg/kg orally daily
Procedure: Repeated injection of doxorubicin in animals is known to cause cardiac injury and to increase mortality. A study was designed to investigate the effect of tolvaptan on doxorubicin-induced cardiac toxicity and animal death. Four groups of rats were evaluated; all with 6 injections of doxorubicin (2.5 mg/kg each) during a two week period. To test the ability of tolvaptan to prevent toxicity, tolvaptan (10 mg/kg orally) daily was given to one group of rats (Tol+Dox). Another group of rats was given vehicle only (Veh+Dox). To test the ability of tolvaptan to reverse the toxicity, tolvaptan (10 mg/kg orally) daily was given to one group of rats, starting after the completion of doxorubicin administration (Dox+Tol). Another group of rats was given vehicle only (Dox+Veh). Table 1 summarizes the group designations:
Survival was analyzed using Kaplan-Meier survival analysis with the Log-Rank test.

[2] = test system: total white blood cell (WBC) and lymphocyte (LY) counts; assay: Myelosuppression: blood cell counts after doxorubicin (Example 3)
Procedure: (§1) To determine whether tolvaptan affects the plasma concentration of doxorubicin, plasma samples were obtained after the first (day 1) and sixth (day 13) injection of doxorubicin with vehicle or tolvaptan, and the plasma concentration of doxorubicin was measured.
Anthracyclines including doxorubicin are known to cause myelosuppression due to their ability to intercalate into DNA, and to inhibit new protein synthesis and cell proliferation in the bone marrow (similar mechanisms are involved in the inhibition of cancer cell proliferation). Myelosuppression was used as an index of the ability of doxorubicin to inhibit cell proliferation and anti-cancer effect. […] Blood samples were taken after 1 or 13 days of treatment with doxorubicin.

[3] = Plasma concentration of doxorubicin with vehicle or tolvaptan (Example 3); assay type: in vivo, rat; conditions: after first (day 1) and sixth (day 13) doxorubicin injection; tolvaptan vs vehicle; FIG. 6
Procedure: as §1

left ventricle [4] = assay: Invasive hemodynamic measurement of cardiac contractility at end of 10 weeks (Example 4); assay type: in vivo, rat; conditions: tolvaptan-treated vs vehicle-treated doxorubicin rats, FIG. 12
Procedure: Control rats were not treated. For groups 2 and 3 with doxorubicin treatment, rats were given three injections intravenously of doxorubicin (3 mg/kg each) every other day (total dose of 9 mg/kg). […] Rats were given either vehicle or tolvaptan (10 mg/kg) daily starting on the first day of doxorubicin injection. On the days with co-administration of doxorubicin and tolvaptan, tolvaptan was given by oral gavage 45 min prior to the intravenous injection of doxorubicin.
Invasive hemodynamic measurements were performed at the end of the 10 week period.

[5] = test system: doxorubicin toxicity under elevated vasopressin condition
Procedure: This condition may be relevant to certain cancer patients who have elevated vasopressin release and are undergoing chemotherapy, such as with doxorubicin.
Two groups of rats were studied and the protocol is described in FIG. 13. Rats were intravenously injected with doxorubicin (3 mg/kg) 3 times once every other day for a total of 9 mg/kg (same as described in Example 4). One group (Dox+DDAVP) was given vehicle and the other group (Dox+DDAVP+Tol) was administered tolvaptan (10 mg/kg) once daily. An osmotic minipump (infusion rate: 0.15 μl/h, ALZET model 2006, ALZA Corporation) was implanted in each rat for continuous subcutaneous infusion of 1 ng/h of DDAVP (a vasopressin V2 agonist [deamino-Cys1, D-Arg8]-vasopressin).

left ventricle [6] = assay: Echocardiography of cardiac function, rat model with intravenous injection of doxorubicin (Example 4); assay type: in vivo
Procedure: In a clinical setting, doxorubicin is administered intravenously to cancer patients. Furthermore, the major side effect associated with doxorubicin treatment is cardiac dysfunction and development of CHF. Therefore, the effect of tolvaptan on CHF was evaluated in a rat model with intravenous injection of doxorubicin. Cardiac function was determined using high resolution ultrasonograpy. Rats were divided into 3 groups as described in Table 2, and observed for 10 weeks. [table] Control rats were not treated. […] Rats were given either vehicle or tolvaptan (10 mg/kg) daily starting on the first day of doxorubicin injection. On the days with co-administration of doxorubicin and tolvaptan, tolvaptan was given by oral gavage 45 min prior to the intravenous injection of doxorubicin. Cardiac function was evaluated using echocardiography (Vevo 770, Visualsonics Inc, Toronto, Canada). Echo images were taken once a week for 10 consecutive weeks. Rats were anesthetized with Isoflurane and parasternal long and short axis echo images were recorded. Offline analysis of cardiac function (ejection fraction and fraction shortening) and anatomic data of the heart (LV end diastolic diameter and volume) were performed. At the end of the 10-week period, cardiac contractility (LVdp/dtmax/ip) was measured invasively.

[7] = test system: doxorubicin-induced mortality; assay: DDAVP infusion and doxorubicin-induced mortality (Example 2); assay type: in vivo, rat; conditions: DDAVP 1 ng/h s.c. infusion 14 days + doxorubicin 6 x 2.5 mg/kg i.p.; vs doxorubicin alone; p<0.001 Log-Rank; FIG. 4
Procedure: The present inventors investigated whether activation of V2 receptors can accelerate doxorubicin-induced mortality. A continuous subcutaneous infusion of 1 ng/h of DDAVP (deamino-Cyst, D-Arg-vasopressin) per animal was accomplished using an osmotic minipump (infusion rate: 0.5 μL/h, ALZET model 2002, DURECT Corporation, Cupertino, Calif.) for 14 days. On day 0 an osmotic minipump was implanted subcutaneously. The sham control rats had the same surgical procedure but with only saline in the minipump. The rats were then divided into two groups: one with six intraperitoneal injections of doxorubicin (2.5 mg/kg) during a 13 day period, and one with injections of saline. The rats were fed with liquid food throughout the experiment. With the continuous infusion of DDAVP, liquid food feeding increases systemic volume overload and edema, conditions often observed in CHF patients.

doxorubicin-treated rats = conditions: antagonist given several weeks after doxorubicin, previous study (ref. 25); cited from earlier work
[8] = thirteen-day treatment with doxorubicin, FIG. 7

Cc1ccccc1C(=O)Nc1ccc(C(=O)N2CCCC(O)c3cc(Cl)ccc32)c(C)c1 (centres unmarked) [tolvaptan, 7-chloro-5-hydroxy-1-[2-methyl-4-(2-methylbenzoyl-amino)benzoyl]-2,3,4,5-tetrahydro-1H-benzazepine]
delay of rat death ([1]; initiated after completion of 6 doxorubicin injections, 5 rats per group, FIG. 2): only a small delay | protective effect on mortality ([1]; initiated after completion of 6 doxorubicin injections, FIG. 2): largely lost | mortality rate (Kaplan-Meier survival analysis, Log-Rank test) ([1]; starting with first doxorubicin injection (6 x 2.5 mg/kg i.p.), 12 weeks, vs vehicle, p<0.001, FIG. 1): significantly reduced | effect on the myelosuppressive effect of doxorubicin ([2]; rat, in vivo): did not affect | effect on plasma concentration of doxorubicin [3]: did not affect | contractility index (LVdp/dtmax normalized to instantaneous LV pressure) (left ventricle [4]): higher | survival (Kaplan-Meier) ([5]; tolvaptan 10 mg/kg once daily, Dox+DDAVP+Tol vs Dox+DDAVP, FIG. 14): significantly improved | cardiac function (fractional shortening, ejection fraction) (left ventricle [6]; tolvaptan 10 mg/kg orally daily from first day of doxorubicin, vs vehicle, FIGS. 8 and 9): significantly improved | remodeling process of the left ventricle (left ventricle [6]; tolvaptan 10 mg/kg orally daily with doxorubicin, FIGS. 10 and 11): slowed

NC(=O)CC[C@@H]1NC(=O)[C@H](Cc2ccccc2)NC(=O)[C@H](Cc2ccc(O)cc2)NC(=O)CCSSC[C@@H](C(=O)N2CCC[C@H]2C(=O)N[C@H](CCCN=C(N)N)C(=O)NCC(N)=O)NC(=O)[C@H](CC(N)=O)NC1=O [DDAVP, [deamino-Cys1, D-Arg8]-vasopressin]
death rate from doxorubicin [7]: significantly accelerated | toxicity of doxorubicin under DDAVP infusion ([5]; DDAVP 1 ng/h s.c. infusion + doxorubicin 3 x 3 mg/kg i.v., FIG. 14): very toxic | time in which rats died ([5]; DDAVP 1 ng/h s.c. infusion + doxorubicin 3 x 3 mg/kg i.v., vehicle): 2 weeks

COc1cccc2c1C(=O)c1c(O)c3c(c(O)c1C2=O)C[C@@](O)(C(=O)CO)C[C@@H]3O[C@H]1C[C@H](N)[C@H](O)[C@H](C)O1 [doxorubicin]
blood cell counts ([2]; one day treatment with doxorubicin): did not affect | lymphocyte (LY) count [2, 8]: significantly reduced | total white blood cell (WBC) count [2, 8]: significantly reduced | fractional shortening of the left ventricle (left ventricle [6]; doxorubicin 3 x 3 mg/kg i.v. every other day, weekly echo for 10 weeks, FIG. 8): progressively decreased | ejection fraction of the left ventricle (left ventricle [6]; doxorubicin 3 x 3 mg/kg i.v. every other day, weekly echo for 10 weeks, FIG. 9): progressively decreased | left ventricle diastolic volume (left ventricle [6]; doxorubicin 3 x 3 mg/kg i.v., weight adjusted, FIG. 10): progressively increased | left ventricle diastolic diameter (left ventricle [6]; doxorubicin 3 x 3 mg/kg i.v., weight adjusted, FIG. 11): progressively increased

Cc1ccccc1C(=O)Nc1ccc(C(=O)N2CCCC(N(C)C)c3ccccc32)cc1 (centres unmarked) [OPC-31260]
mortality rate (doxorubicin-treated rats): slight but not significant reduction
